Measurements as given in PubChem BioAssay AID248 (DTP/NCI, 2004).
Inconclusive results and toxic doses are left out. Rule as the data show it: active = T/C of 150% or more; inactive = T/C below 125%.

System: L1210 leukemia ip in BDF1 mice, survival T/C
Assay: NCI In Vivo Anticancer Drug Screen. Data for tumor model L1210 Leukemia (intraperitoneal) in B6D2F1 (BDF1) mice
Settings: endpoint: mean survival time, higher = longer survival
Procedure, shortened: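 Transplanted-tumor mice were given test agent; controls received vehicle only. Survival readings from the two groups were divided (treated over control).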

[1] = dose: 100.0 mg/kg/injection, schedule: Q01DX009 (ip), vehicle: Klucel (hydroxypropylcellulose) (HPC)
[2] = dose: 200.0 mg/kg/injection, schedule: Q01DX009 (ip), vehicle: Klucel (hydroxypropylcellulose) (HPC)
[3] = dose: 100.0 mg/kg/injection, schedule: Q01DX001 (ip), vehicle: saline
[4] = dose: 200.0 mg/kg/injection, schedule: Q01DX001 (ip), vehicle: saline
[5] = dose: 400.0 mg/kg/injection, schedule: Q01DX001 (ip), vehicle: saline
[6] = dose: 100.0 mg/kg/injection, schedule: Q04DX003 (ip), vehicle: Klucel (hydroxypropylcellulose) (HPC)
[7] = dose: 200.0 mg/kg/injection, schedule: Q04DX003 (ip), vehicle: Klucel (hydroxypropylcellulose) (HPC)
[8] = dose: 400.0 mg/kg/injection, schedule: Q01DX009 (ip), vehicle: Klucel (hydroxypropylcellulose) (HPC)
[9] = dose: 400.0 mg/kg/injection, schedule: Q04DX003 (ip), vehicle: Klucel (hydroxypropylcellulose) (HPC)
[10] = dose: 100.0 mg/kg/injection, schedule: Q01DX009 (ip), vehicle: saline with Tween-80
[11] = dose: 200.0 mg/kg/injection, schedule: Q01DX009 (ip), vehicle: saline with Tween-80
[12] = dose: 100.0 mg/kg/injection, schedule: Q01DX001 (ip), vehicle: Klucel (hydroxypropylcellulose) (HPC)
[13] = dose: 200.0 mg/kg/injection, schedule: Q01DX001 (ip), vehicle: Klucel (hydroxypropylcellulose) (HPC)

Measured: T/C

CCOC(=O)c1ccc(N=Cc2ccccc2O)cc1
inactive: dose: 50.0 mg/kg/injection, schedule: Q01DX009 (ip), vehicle: Klucel (hydroxypropylcellulose) (HPC) 98 % of control | dose: 75.0 mg/kg/injection, schedule: Q01DX001 (ip), vehicle: Klucel (hydroxypropylcellulose) (HPC) 88 % of control | [1] 89 % of control | dose: 150.0 mg/kg/injection, schedule: Q01DX001 (ip), vehicle: Klucel (hydroxypropylcellulose) (HPC) 105 % of control | [2] 106 % of control | dose: 300.0 mg/kg/injection, schedule: Q01DX001 (ip), vehicle: Klucel (hydroxypropylcellulose) (HPC) 88 % of control

Cc1cc2c(N)[nH]c(=O)nc2s1
inactive: dose: 100.0 mg/kg/injection, schedule: Q04DX003 (ip), vehicle: water 90 % of control | dose: 200.0 mg/kg/injection, schedule: Q04DX003 (ip), vehicle: water 93 % of control

CC1CC(=O)c2c(cc3c(-c4c(O)cc(O)c5c(O)c6c(cc45)OC(C)CC6=O)c(O)cc(O)c3c2O)O1 (stereo unspecified)
inactive: dose: 100.0 mg/kg/injection, schedule: Q04DX003 (ip), vehicle: carboxymethylcellulose (CMC) 103 % of control | dose: 200.0 mg/kg/injection, schedule: Q04DX003 (ip), vehicle: carboxymethylcellulose (CMC) 92 % of control

Nc1nc(=O)n(C2OC(CO)C(O)C2O)c2ccccc12 (stereo unspecified)
inactive: [3] 101 % of control | [4] 101 % of control | [5] 101 % of control

CCOC(=O)c1c(C)[nH]c2ccc(O)cc12
inactive: [1] 92 % of control | [6] 95 % of control | [2] 104 % of control | [7] 100 % of control | [8] 114 % of control | [9] 100 % of control

CCCCCCCCCCCCCCCCCCNC(=O)OCC
inactive: dose: 100.0 mg/kg/injection, schedule: Q04DX002 (sc), vehicle: olive oil, sesame oil, peanut oil 103 % of control | dose: 200.0 mg/kg/injection, schedule: Q04DX002 (sc), vehicle: olive oil, sesame oil, peanut oil 113 % of control | dose: 400.0 mg/kg/injection, schedule: Q04DX002 (sc), vehicle: olive oil, sesame oil, peanut oil 106 % of control

Cn1cnc([N+](=O)[O-])c1/N=C/c1ccccc1
inactive: dose: 50.0 mg/kg/injection, schedule: Q01DX005 (ip), vehicle: saline 98 % of control | dose: 100.0 mg/kg/injection, schedule: Q01DX005 (ip), vehicle: saline 100 % of control | dose: 200.0 mg/kg/injection, schedule: Q01DX005 (ip), vehicle: saline 104 % of control

O=C(Nc1ccc(Nc2ccccc2)cc1)Nc1cccc(F)c1
inactive: [10] 88 % of control | [11] 96 % of control

CC1CCC(C(C)C)C(OC(=O)Nc2ccc(S(=O)(=O)N(C)C)cc2)C1 (stereo unspecified)
inactive: [3] 94 % of control | [4] 89 % of control | [5] 91 % of control

O=C1CCCCC1c1sc([N+](=O)[O-])cc1[N+](=O)[O-] (stereo unspecified)
inactive: dose: 100.0 mg/kg/injection, schedule: Q04DX002 (ip), vehicle: saline with Tween-80 93 % of control | dose: 200.0 mg/kg/injection, schedule: Q04DX002 (ip), vehicle: saline with Tween-80 104 % of control

CCCCC[n+]1ccc(C(N)=O)cc1
inactive: dose: 100.0 mg/kg/injection, schedule: Q04DX003 (ip), vehicle: saline 105 % of control | dose: 200.0 mg/kg/injection, schedule: Q04DX003 (ip), vehicle: saline 100 % of control

CCCC(OC(C[N+](=O)[O-])C(Cl)(Cl)Cl)c1ccccc1 (stereo unspecified)
inactive: [10] 97 % of control | dose: 100.0 mg/kg/injection, schedule: Q04DX003 (ip), vehicle: saline with Tween-80 98 % of control | [11] 101 % of control | dose: 200.0 mg/kg/injection, schedule: Q04DX003 (ip), vehicle: saline with Tween-80 96 % of control | dose: 400.0 mg/kg/injection, schedule: Q01DX009 (ip), vehicle: saline with Tween-80 107 % of control | dose: 400.0 mg/kg/injection, schedule: Q04DX003 (ip), vehicle: saline with Tween-80 96 % of control

C/C(C/C(C)=N\N=C(N)N)=N/N=C(N)N
inactive: dose: 15.0 mg/kg/injection, schedule: Q01DX Z (ip), vehicle: carboxymethylcellulose (CMC) 96 % of control | dose: 30.0 mg/kg/injection, schedule: Q01DX Z (ip), vehicle: carboxymethylcellulose (CMC) 98 % of control | dose: 60.0 mg/kg/injection, schedule: Q01DX Z (ip), vehicle: carboxymethylcellulose (CMC) 95 % of control | dose: 60.0 mg/kg/injection, schedule: Q01DX Z (oral), vehicle: carboxymethylcellulose (CMC) 90 % of control | dose: 120.0 mg/kg/injection, schedule: Q01DX Z (ip), vehicle: carboxymethylcellulose (CMC) 95 % of control | dose: 120.0 mg/kg/injection, schedule: Q01DX Z (oral), vehicle: carboxymethylcellulose (CMC) 90 % of control | dose: 240.0 mg/kg/injection, schedule: Q01DX Z (oral), vehicle: carboxymethylcellulose (CMC) 96 % of control | dose: 480.0 mg/kg/injection, schedule: Q01DX Z (oral), vehicle: carboxymethylcellulose (CMC) 96 % of control

CCCC[CH2][Sn](=[O])[CH2]CCCC
inactive: dose: 12.5 mg/kg/injection, schedule: Q04DX003 (ip), vehicle: saline 101 % of control | dose: 25.0 mg/kg/injection, schedule: Q04DX003 (ip), vehicle: saline 101 % of control | dose: 50.0 mg/kg/injection, schedule: Q04DX003 (ip), vehicle: saline 108 % of control | [3] 109 % of control | [4] 104 % of control | [5] 98 % of control

COC(=O)c1cc(=O)[nH]n1C
inactive: [1] 104 % of control | [2] 104 % of control | [8] 101 % of control

CC(=O)NC(C)(SC(C)=O)C(=O)O (stereo unspecified)
inactive: [12] 94 % of control | [13] 95 % of control | dose: 400.0 mg/kg/injection, schedule: Q01DX001 (ip), vehicle: Klucel (hydroxypropylcellulose) (HPC) 94 % of control

N#CCc1ccc(NN)cc1
inactive: dose: 75.0 mg/kg/injection, schedule: Q01DX009 (ip), vehicle: other 93 % of control | dose: 150.0 mg/kg/injection, schedule: Q01DX009 (ip), vehicle: other 95 % of control

c1ccc(-c2ccc(-c3ccccc3)o2)cc1
inactive: dose: 100.0 mg/kg/injection, schedule: Q04DX002 (ip), vehicle: Klucel (hydroxypropylcellulose) (HPC) 106 % of control | dose: 200.0 mg/kg/injection, schedule: Q04DX002 (ip), vehicle: Klucel (hydroxypropylcellulose) (HPC) 95 % of control | dose: 400.0 mg/kg/injection, schedule: Q04DX002 (ip), vehicle: Klucel (hydroxypropylcellulose) (HPC) 106 % of control

Cc1cccc(OCCOC(=O)Nc2ccccc2F)c1
inactive: [1] 103 % of control | [2] 93 % of control | [8] 106 % of control

CCCCNC(=O)Nc1ccc(OC)cc1OC
inactive: [1] 101 % of control | [6] 92 % of control | [2] 96 % of control | [7] 95 % of control | [8] 118 % of control | [9] 95 % of control

O=C1c2ccccc2C(=O)N1Cc1cccc(CBr)c1
inactive: dose: 50.0 mg/kg/injection, schedule: Q01DX001 (ip), vehicle: Klucel (hydroxypropylcellulose) (HPC) 105 % of control | [12] 92 % of control | [13] 91 % of control

C/C=C(/C)C(=O)O[C@H]1CCN2CC=C(COC(=O)[C@@](O)([C@H](C)OC)C(C)(C)O)[C@H]12
inactive: dose: 5.0 mg/kg/injection, schedule: Q01DX001 (ip), vehicle: other 100 % of control | dose: 7.5 mg/kg/injection, schedule: Q04DX003 (ip), vehicle: Klucel (hydroxypropylcellulose) (HPC) 97 % of control | dose: 10.0 mg/kg/injection, schedule: Q01DX001 (ip), vehicle: other 105 % of control | dose: 15.0 mg/kg/injection, schedule: Q04DX003 (ip), vehicle: Klucel (hydroxypropylcellulose) (HPC) 103 % of control | dose: 20.0 mg/kg/injection, schedule: Q01DX001 (ip), vehicle: other 100 % of control | dose: 30.0 mg/kg/injection, schedule: Q04DX003 (ip), vehicle: Klucel (hydroxypropylcellulose) (HPC) 103 % of control | dose: 40.0 mg/kg/injection, schedule: Q01DX001 (ip), vehicle: other 102 % of control | dose: 60.0 mg/kg/injection, schedule: Q04DX003 (ip), vehicle: Klucel (hydroxypropylcellulose) (HPC) 97 % of control | dose: 80.0 mg/kg/injection, schedule: Q01DX001 (ip), vehicle: other 103 % of control
